From patent US10682340B2, “Depot formulations” (DURECT CORPORATION, priority 2016, dated 2020)
Values after ≈ are worked out from the molar mass of the structure shown. Like-named read-outs stand apart in the source and are kept apart here.

Assay: Solubility of sirolimus in aqueous media, solvents and benzyl benzoate/ethanol mixtures
Assay type: physicochemical

- solubility (PBS with 0.1% SDS, aqueous with cosolvent or surfactant or cyclodextrin, PBS, 0.1% SDS, pH 7.4, ambient temperature, read-out: Solubility): 0.23 mg/mL (≈ 0.252 mM)
- solubility (PBS, pH 7.4, ambient temperature): Not detected
- solubility (benzyl benzoate/ethanol mixture, organic solvent or mixture, BB/EtOH Ratio 7, room temperature, read-out: Solubility in Benzyl Benzoate/Ethanol): 163 mg/mL
- solubility (benzyl benzoate/ethanol mixture, organic solvent or mixture, BB/EtOH Ratio 9, room temperature, read-out: Solubility in Benzyl Benzoate/Ethanol): 125 mg/mL
- solubility (benzyl benzoate/ethanol mixture, organic solvent or mixture, BB/EtOH Ratio 16, room temperature, read-out: Solubility in Benzyl Benzoate/Ethanol): 90.1 mg/mL
- solubility (benzyl benzoate/ethanol mixture, organic solvent or mixture, BB/EtOH Ratio 18, room temperature, read-out: Solubility in Benzyl Benzoate/Ethanol): 85.6 mg/mL
- solubility (oil or lipid, Castor oil, ambient temperature, read-out: Solubility): 3 mg/mL (≈ 3.28 mM)
- solubility (organic solvent or mixture, Benzyl alcohol (BA), ambient temperature, read-out: Solubility): ≥ 387 mg/mL
- solubility (organic solvent or mixture, Benzyl benzoate (BB), ambient temperature, read-out: Solubility): 37 mg/mL (≈ 40.5 mM)
- solubility (organic solvent or mixture, Dimethyl sulfoxide (DMSO), ambient temperature, read-out: Solubility): ≥ 243 mg/mL
- solubility (organic solvent or mixture, Ethanol (EtOH), ambient temperature, read-out: Solubility): 48.5 mg/mL (≈ 53.1 mM)
- solubility (organic solvent or mixture, N methyl-2 Pyrrolidone (NMP), ambient temperature, read-out: Solubility): ≥ 284 mg/mL
- solubility (organic solvent or mixture, PEG 400, ambient temperature, read-out: Solubility): 10.7 mg/mL (≈ 11.7 mM)
- solubility (organic solvent or mixture, Propylene glycol, ambient temperature, read-out: Solubility): 11.8 mg/mL (≈ 12.9 mM)
Compound: CO[C@H]1C[C@@H]2CC[C@@H](C)[C@@](O)(O2)C(=O)C(=O)N2CCCC[C@H]2C(=O)O[C@H]([C@H](C)C[C@@H]2CC[C@@H](O)[C@H](OC)C2)CC(=O)[C@H](C)/C=C(\C)[C@@H](O)[C@@H](OC)C(=O)[C@H](C)C[C@H](C)/C=C/C=C/C=C/1C [Sirolimus, sirolimus]
